# Measured values as given in patent US6958318B2, “Recombinant bacterial cells for delivery of PNP to tumor cells” (The UAB Research Foundation, priority 1993, dated 2005).
# Where “and” joins values, the source holds several entries; their conditions need not be identical. Identical values can stand only once. Entries after “also recorded” stand apart in the source; their conditions may differ. Like-named read-outs stand apart in the source and are kept apart here.
# Legend:
# human PNP = biological target: T1, human PNP (Homo sapiens, UniProt P00491); experiment: Cleavage of purine analog nucleosides by human PNP (HPLC); assay type: biochemical
# T1 sequence (P00491 1-289): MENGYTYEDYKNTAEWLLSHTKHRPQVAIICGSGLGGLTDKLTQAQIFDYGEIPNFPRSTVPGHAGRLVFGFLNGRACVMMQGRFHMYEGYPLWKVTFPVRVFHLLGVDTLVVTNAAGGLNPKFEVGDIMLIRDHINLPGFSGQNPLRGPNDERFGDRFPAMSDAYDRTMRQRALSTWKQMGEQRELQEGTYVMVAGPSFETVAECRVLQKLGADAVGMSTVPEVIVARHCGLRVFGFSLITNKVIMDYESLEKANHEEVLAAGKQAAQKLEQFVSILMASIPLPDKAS
# 16/C breast cancer cells = experiment: Bystander killing, mixed wild type and PNP-transduced 16/C cells; assay type: cell-based, murine; conditions: 20 μg/ml
# [1] = system: wild type murine breast carcinoma cells (16/C cell line); experiment: Wild-type 16/C tumors in nude mice; assay type: in vivo; conditions: FIG. 6
# Method: For studies conducted with nu/nu mice, cells obtained from stable cultures of transduced cell lines were injected subcutaneously into the right or left flank of the mice. Mice with visible tumor growth were used for further studies. For the administration of purine prodrug, mice were administered MeP-dR or F-araAMP by IP injection.
# Four to five nude (nu/nu) mice per group were inoculated with wild type murine breast carcinoma cells (16/C cell line), or PNP transduced 16/C cells. Mice with established tumors (approximately 100 mm^3) were treated with MeP-dR (100 mg/kg/d IP×3 d) or F-araAMP (100 mg/kg/IP 3 id×3 d).
# [2] = system: T-84 colon carcinoma cells; experiment: Toxicity of MeP and MeP-dR in untransfected T-84 cells; assay type: cell-based, human; conditions: 5 days
# Method: T-84 colon carcinoma cells were grown in Dulbecco's modified Eagle medium containing F12 nutrient medium (DMEM/F12) (GIBCO/BRL, Gaithersburg, Md.) in 6 well trays to a density of approximately […] (−20% confluency).
# Untransfected T-84 colon carcinoma cells were treated with increasing concentrations of either MeP-dR or MeP. After 5 days the cells were removed from each well and the number of dye excluding cells were determined with the aid of a hemacytometer. Cells were studied both at passage 48 (p. 48) and passage 61 (p. 61). MeP was obtained from Sigma Chemical Company (St. Louis, Mo.). MeP-dR was synthesized by standard methods as described (J. A. Montgomery and K. Howson, J. Med. Chem., 11:48-52 (1968)). The nucleoside and base were dissolved in serum free DMEM/F12 at a concentration of 1 mg/ml and added directly to 1 ml DMEM/F12 with 10% fetal bovine serum at the concentrations described below in order to cover 1-2×10^5 cells/well.
# Initial cytopathic effects due to MeP were observed within 24 hours (for example, rounding of cells, with some cells detaching from plate). Viable cells were counted 5 days following addition of drug. […] Trypan blue exclusion was used to confirm viability in cells retaining recognizable structure at all concentrations studied. […] If the toxicity of MeP-dR is due to very low levels of liberation of MeP by human PNP, then combination with selective inhibitors of human PNP could prevent this toxicity.
# E. coli PNP [3] = biological target: T2, E. coli PNP (Escherichia coli, UniProt P0ABP8); assay type: cell-based; conditions: 160 μM, 5 day period, E. coli PNP transfected cells
# T2 sequence (P0ABP8 2-239): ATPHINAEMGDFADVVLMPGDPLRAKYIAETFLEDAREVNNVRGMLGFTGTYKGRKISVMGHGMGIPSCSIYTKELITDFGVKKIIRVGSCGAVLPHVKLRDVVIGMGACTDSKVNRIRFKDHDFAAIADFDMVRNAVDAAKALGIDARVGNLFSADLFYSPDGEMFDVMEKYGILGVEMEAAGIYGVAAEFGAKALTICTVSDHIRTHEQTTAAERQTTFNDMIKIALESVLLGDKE
# D54-PNP tumors = experiment: E. coli PNP-transduced D54 glioma tumors in nude mice; assay type: in vivo
# Method: Female athymic nude mice (nu/nu) were implanted sc with 2×10^7 cells of either D54 parental tumor cells (D54-wt) or D54 tumor cells that had been transduced with the E. coli PNP (D54-PNP). After the tumors had grown to approximately 150 mg, they were treated ip with either vehicle or 67 mg/kg of MeP-dR (IP) once a day for 3 days (days 6, 7 and 8 after implantation). The tumor sizes were measured twice a week after treatment.
# A confirmation experiment was set up exactly as described above, except that animals were treated with two doses of MeP-dR (45 and 67 mg/kg) (FIGS. 10 and 11). The results of this experiment were similar (Table V). There were 8 of 10 complete regressions in mice bearing the D54-PNP tumors that were treated with 67 mg/kg of MeP-dR. In 4 mice the tumors subsequently returned and grew. There were still 4 of 10 tumor-free survivors 60 days after the treatment had stopped. […] There were 2 of 10 complete regressions and 3 partial responses. […] The delay in the time required to double twice due to treatment with MeP-dR was 5 to 6 days in the non-transduced tumors and greater than 24 days in transduced tumors. In this experiment, the growth rate of the D54-PNP tumors was considerably slower than it was in the first experiment. There was no change in the growth rate of the D54-wt tumors. The reason for the slow growth rate of the D54-PNP tumors in this experiment is not known. […] (In other words, if a tumor was too small to measure, it was not included in the average size). This means that the overall tumor regressions in the D54 PNP group are actually much more pronounced than they appear in FIGS. 8-11.
# E. coli PNP [4] = biological target: T2, E. coli PNP; assay type: biochemical
structure (smiles),measurement,setting,value
"Cc1ncnc2c1ncn2[C@H]1C[C@H](O)[C@@H](CO)O1 [MeP-dR, 9-(β-D-2-deoxyerythropentofuranosyl)-6-methylpurine]","Percent of substrate cleaved by Human PNP, 100 μM",human PNP,0(86) Percent and 0%
same,"Percent of substrate cleaved by Human PNP, 1 mM",human PNP,0(47) Percent and 0%
same,Substrate quality for mammalian (human) PNP,human PNP,poor substrates
same,Toxicity to untransduced 16/C cells,16/C breast cancer cells,not toxic
same,Cell proliferation when as few as 2% of cells express E. coli PNP,16/C breast cancer cells; mixed culture,completely eliminated cell proliferation; also recorded: Complete abrogation of cellular proliferation
same,Share of cells expressing PNP required for total population cell killing,16/C breast cancer cells; LDH release assay,1%
same,Effect on growth of wild-type 16/C tumors,[1],only a small effect on tumor growth
same,Toxicity to cells that were not transfected,[2]; 160 μM,minimally toxic
same,Cells killed,[2]; 200 and 400 μM,less than half of the cells were killed
same,Cell death,[2]; lower concentrations,did not cause any appreciable cell death
same,MeP-dR converted to MeP in culture medium,E. coli PNP [3],More than 75%
same,Loss of weight in treated animals,"D54-PNP tumors; 67 mg/kg, regardless of tumor implanted",little or no loss of weight
same,"Effect on E. coli PNP expressing D54 tumors, in words",D54-PNP tumors; 45 or 67 mg/kg,caused regression
same,Days Delay (T-C),"D54-PNP tumors; Table IV, 67 mg/kg",>39 days
same,Doubling time,"D54-PNP tumors; Table IV, 67 mg/kg",>56
same,Nonspecific Deaths/Total,"D54-PNP tumors; Table IV, 67 mg/kg",0/6
same,Regressions Partial,"D54-PNP tumors; Table IV, 67 mg/kg",0/6
same,Regressions Complete,"D54-PNP tumors; Table IV, 67 mg/kg IP once a day for three days, 67 mg/kg",6 of 6 and 6/6
same,Tumor-free Survival,"D54-PNP tumors; Table IV, 67 mg/kg, followed 65 days, 67 mg/kg",Four and 4/6
same,Days Delay (T-C),"D54-PNP tumors; Table V, 45 mg/kg",>24 days
same,Doubling time,"D54-PNP tumors; Table V, 45 mg/kg",>54
same,Nonspecific Deaths/Total,"D54-PNP tumors; Table V, 45 mg/kg",0/10
same,Regressions Partial,"D54-PNP tumors; Table V, 45 mg/kg",3 and 3/10
same,Tumor-free Survival,"D54-PNP tumors; Table V, 45 mg/kg",no tumor-free survivors and 0/10
same,Regressions Complete,"D54-PNP tumors; Table V, 45 mg/kg IP once a day for three days, 45 mg/kg",2 of 10 and 2/10
same,Days Delay (T-C),"D54-PNP tumors; Table V, 67 mg/kg",>25 days
same,Doubling time,"D54-PNP tumors; Table V, 67 mg/kg",>55
same,Nonspecific Deaths/Total,"D54-PNP tumors; Table V, 67 mg/kg",1/10
same,Regressions Partial,"D54-PNP tumors; Table V, 67 mg/kg",1/10
same,Regressions Complete,"D54-PNP tumors; Table V, 67 mg/kg IP once a day for three days, 67 mg/kg",8 of 10 and 8/10
same,Tumor-free Survival,"D54-PNP tumors; Table V, 67 mg/kg, 60 days after treatment stopped, 67 mg/kg",4 of 10 and 4/10
same,Activity against D54 glioma tumors expressing the E. coli PNP gene,D54-PNP tumors; previous studies,good activity
same,Delay in the time required to double twice,"D54-PNP tumors; transduced tumors, 45 and 67 mg/kg",greater than 24 days
same,MeP-dR converted to MeP,"E. coli PNP [4]; extracts of E. coli PNP transfected T-84 cells, 100 μM, 24 hours, 25° C.",Approximately 24%
same,MeP-dR converted to MeP,E. coli PNP [4]; extracts of LacZ transfected T-84 cells,no conversion occurred
